# Test results from the supplement of paper PMC10307832.
# Compound: C=CCn1c(=O)c2cnc(Nc3ccc(N4CCN(C)CC4)cc3)nc2n1-c1cccc(C(C)(C)O)n1 [Adavosertib] + O=C(c1cc(Cc2n[nH]c(=O)c3ccccc23)ccc1F)N1CCN(C(=O)C2CC2)CC1 [Olaparib] (partner 8 µM)
# Test: relative viability (nuclei count vs DMSO), 5 days (fraction); higher = more cells survive
# Conditions: first compound 0.3162 µM
# Summary of the method: (§1)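 Medians of duplicate plates are given as relative viability. That measure is the nuclei count in treated wells divided by the count in vehicle wells. Counts were taken on 4× images of lung cancer cell lines in 1536-well plates, 5 days after pin-tool dosing the day after seeding with one drug alone or a fixed anchor-drug dose plus five library-drug doses (not always all listed) in √10 steps.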
row,Cell Line,relative viability
1,NCI-H1299,0.357
2,NCI-H1648,0.769
3,NCI-H1650,0.622
4,NCI-H1703,0.141
5,NCI-H2009,0.777
6,NCI-H2023,0.168
7,NCI-H2228,0.27
8,NCI-H2342,0.524
9,SK-LU-1,0.249
10,SK-MES-1,0.233
11,SW 900,0.399
12,SW 1573,0.372
13,UMC-11,1.03

# Compound: COc1nc(N)nc2c1ncn2[C@@H]1O[C@H](CO)[C@@H](O)[C@@H]1O [Nelarabine] + NC(=O)Nc1cc(-c2cccc(F)c2)sc1C(=O)N[C@H]1CCCNC1 [AZD7762] (partner 0.2 µM)
# Test: as above
# Conditions: first compound 0.01 µM
# Summary of the method: as §1
row,Cell Line,relative viability
1,201T,0.774
2,A-427,0.781
3,BEN,0.746
4,CAL-12T,0.721
5,ChaGo-K-1,1
6,EKVX,0.977
7,EPLC-272H,0.196
8,H3255,0.835
9,HARA,0.426
10,HCC-15,1.47
11,HCC-44,1.01
12,HCC-78,0.708
13,HCC-366,0.371
14,HCC-827,0.203
15,HOP-62,0.684
16,LC-2-ad,1.01
17,LCLC-97TM1,0.273
18,LCLC-103H,0.829
19,LK-2,0.408
20,NCI-H522,0.844
21,NCI-H1703,0.17
22,NCI-H2342,0.508
23,SW 900,0.636

# Same assay, conditions: first compound 0.03162 µM
row,Cell Line,relative viability
1,201T,0.547
2,A-427,0.62
3,ABC-1,0.839
4,BEN,0.683
5,CAL-12T,0.642
6,ChaGo-K-1,0.715
7,EKVX,0.63
8,EPLC-272H,0.209
9,H3255,0.933
10,HARA,0.284
11,HCC-15,1.15
12,HCC-44,0.951
13,HCC-78,0.673
14,HCC-366,0.217
15,HCC-827,0.208
16,HOP-62,0.396
17,LC-2-ad,0.96
18,LCLC-103H,0.75
19,NCI-H522,1.02
20,NCI-H1648,0.597
21,NCI-H1703,0.0897
22,NCI-H2342,0.5
23,SW 900,0.569

# Same assay, conditions: first compound 0.1 µM
row,Cell Line,relative viability
1,201T,0.609
2,A-427,0.599
3,ABC-1,0.766
4,BEN,0.711
5,CAL-12T,0.685
6,ChaGo-K-1,0.871
7,EKVX,0.606
8,EPLC-272H,0.305
9,H3255,0.938
10,HARA,0.307
11,HCC-15,0.967
12,HCC-44,1.05
13,HCC-366,0.228
14,HCC-827,0.158
15,HOP-62,0.602
16,LC-2-ad,0.859
17,LCLC-97TM1,0.351
18,LCLC-103H,0.71
19,LK-2,0.289
20,NCI-H522,0.813
21,NCI-H1703,0.132
22,NCI-H2342,0.439
23,SW 900,0.556

# Same assay, conditions: first compound 0.3162 µM
row,Cell Line,relative viability
1,201T,0.653
2,A-427,0.62
3,ABC-1,0.845
4,BEN,0.683
5,CAL-12T,0.58
6,ChaGo-K-1,0.985
7,EKVX,0.717
8,EPLC-272H,0.247
9,H3255,0.854
10,HARA,0.441
11,HCC-15,1.17
12,HCC-44,0.999
13,HCC-78,0.764
14,HCC-366,0.411
15,HCC-827,0.175
16,HOP-62,0.798
17,LC-2-ad,0.908
18,LCLC-97TM1,0.281
19,LCLC-103H,0.855
20,LK-2,0.498
21,NCI-H522,0.86
22,NCI-H1648,0.638
23,NCI-H1703,0.131
24,NCI-H2342,0.555
25,SW 900,0.645

# Same assay, conditions: first compound 1 µM
row,Cell Line,relative viability
1,201T,0.612
2,A-427,0.572
3,ABC-1,0.78
4,BEN,0.674
5,CAL-12T,0.561
6,ChaGo-K-1,0.821
7,EKVX,0.732
8,EPLC-272H,0.297
9,H3255,0.95
10,HARA,0.373
11,HCC-15,1.19
12,HCC-44,0.955
13,HCC-78,0.564
14,HCC-366,0.287
15,HCC-827,0.163
16,HOP-62,0.48
17,LC-2-ad,0.856
18,LCLC-97TM1,0.215
19,LCLC-103H,0.838
20,LK-2,0.309
21,NCI-H522,0.949
22,NCI-H1648,0.664
23,NCI-H1703,0.104
24,NCI-H2342,0.464
25,SW 900,0.535

# Compound: COc1nc(N)nc2c1ncn2[C@@H]1O[C@H](CO)[C@@H](O)[C@@H]1O [Nelarabine] + CS(=O)(=O)N1CCN(Cc2cc3nc(-c4cccc5[nH]ncc45)nc(N4CCOCC4)c3s2)CC1 [Pictilisib] (partner 1 µM)
# Test: as above
# Conditions: first compound 0.01 µM
# Summary of the method: as §1
row,Cell Line,relative viability
1,201T,0.792
2,A549,0.729
3,A-427,0.928
4,ABC-1,0.901
5,BEN,0.67
6,CAL-12T,0.393
7,COR-L23,1.13
8,COR-L 105,0.341
9,Calu-6,1.15
10,ChaGo-K-1,0.699
11,EBC-1,0.372
12,EKVX,0.547
13,EPLC-272H,0.337
14,H3255,0.534
15,HARA,0.457
16,HCC-15,0.893
17,HCC-44,0.708
18,HCC-78,0.156
19,HCC-366,0.165
20,HCC-827,0.956

row,Cell Line,relative viability
1,HOP-62,0.833
2,IA-LM,0.369
3,LC-2-ad,0.624
4,LCLC-97TM1,0.196
5,LCLC-103H,0.756
6,LK-2,0.68
7,NCI-H520,0.387
8,NCI-H661,0.345
9,NCI-H1299,1.06
10,NCI-H1563,0.605
11,NCI-H1650,0.742
12,NCI-H1703,0.248
13,NCI-H2009,1.31
14,NCI-H2023,0.309
15,NCI-H2228,0.275
16,SK-LU-1,0.684
17,SK-MES-1,0.34
18,SW 1573,0.68
19,UMC-11,1.05

# Same assay, conditions: first compound 0.03162 µM
row,Cell Line,relative viability
1,201T,0.556
2,A549,0.546
3,A-427,0.749
4,ABC-1,0.828
5,BEN,0.596
6,CAL-12T,0.642
7,COR-L23,0.635
8,COR-L 105,0.4
9,Calu-6,0.856
10,ChaGo-K-1,0.611
11,EBC-1,0.284
12,EKVX,0.373
13,EPLC-272H,0.269
14,H3255,0.494
15,HARA,0.346
16,HCC-15,0.669
17,HCC-44,0.829
18,HCC-78,0.215
19,HCC-366,0.122

row,Cell Line,relative viability
1,HCC-827,0.863
2,HOP-62,0.743
3,IA-LM,0.343
4,LC-2-ad,0.467
5,LCLC-97TM1,0.202
6,LCLC-103H,0.811
7,NCI-H520,0.256
8,NCI-H661,0.362
9,NCI-H1299,0.899
10,NCI-H1563,0.634
11,NCI-H1650,0.666
12,NCI-H2009,0.917
13,NCI-H2023,0.316
14,NCI-H2228,0.235
15,SK-LU-1,0.396
16,SK-MES-1,0.318
17,SW 1573,0.53
18,UMC-11,0.729

# Same assay, conditions: first compound 0.1 µM
row,Cell Line,relative viability
1,201T,0.718
2,A549,0.499
3,A-427,0.745
4,ABC-1,0.584
5,BEN,0.605
6,CAL-12T,0.365
7,COR-L23,0.738
8,COR-L 105,0.352
9,Calu-6,0.977
10,ChaGo-K-1,0.934
11,EBC-1,0.407
12,EKVX,0.359
13,EPLC-272H,0.315
14,H3255,0.456
15,HARA,0.336
16,HCC-15,0.76
17,HCC-44,0.569
18,HCC-366,0.152
19,HCC-827,0.931

row,Cell Line,relative viability
1,HOP-62,0.815
2,IA-LM,0.22
3,LC-2-ad,0.428
4,LCLC-97TM1,0.152
5,LCLC-103H,0.62
6,LK-2,0.503
7,NCI-H520,0.345
8,NCI-H661,0.462
9,NCI-H1299,0.857
10,NCI-H1563,0.641
11,NCI-H1650,0.476
12,NCI-H1703,0.237
13,NCI-H2009,0.841
14,NCI-H2023,0.176
15,SK-LU-1,0.546
16,SK-MES-1,0.331
17,SW 1573,0.535
18,UMC-11,0.874

# Same assay, conditions: first compound 0.3162 µM
row,Cell Line,relative viability
1,201T,0.714
2,A549,0.577
3,A-427,0.716
4,ABC-1,1.01
5,BEN,0.607
6,CAL-12T,0.494
7,COR-L23,0.934
8,COR-L 105,0.424
9,Calu-6,0.891
10,ChaGo-K-1,0.678
11,EBC-1,0.329
12,EKVX,0.508
13,EPLC-272H,0.302
14,H3255,0.394
15,HARA,0.452
16,HCC-15,0.871
17,HCC-44,0.597
18,HCC-78,0.261
19,HCC-366,0.196
20,HCC-827,0.814

row,Cell Line,relative viability
1,HOP-62,0.574
2,IA-LM,0.259
3,LC-2-ad,0.482
4,LCLC-97TM1,0.248
5,LCLC-103H,0.671
6,LK-2,0.436
7,NCI-H520,0.322
8,NCI-H661,0.388
9,NCI-H1299,0.861
10,NCI-H1563,0.67
11,NCI-H1650,0.559
12,NCI-H1703,0.211
13,NCI-H2009,1.03
14,NCI-H2023,0.216
15,NCI-H2228,0.452
16,SK-LU-1,0.606
17,SK-MES-1,0.358
18,SW 1573,0.485
19,UMC-11,1.02

# Same assay, conditions: first compound 1 µM
row,Cell Line,relative viability
1,201T,0.705
2,A549,0.463
3,A-427,0.714
4,ABC-1,0.756
5,BEN,0.641
6,CAL-12T,0.423
7,COR-L23,0.864
8,COR-L 105,0.39
9,Calu-6,0.962
10,ChaGo-K-1,0.743
11,EBC-1,0.461
12,EKVX,0.474
13,EPLC-272H,0.298
14,H3255,0.477
15,HARA,0.354
16,HCC-15,0.832
17,HCC-44,0.529
18,HCC-78,0.231
19,HCC-366,0.132
20,HCC-827,0.76

row,Cell Line,relative viability
1,HOP-62,0.706
2,IA-LM,0.328
3,LC-2-ad,0.468
4,LCLC-97TM1,0.22
5,LCLC-103H,0.652
6,LK-2,0.651
7,NCI-H520,0.314
8,NCI-H661,0.354
9,NCI-H1299,0.757
10,NCI-H1563,0.626
11,NCI-H1650,0.591
12,NCI-H1703,0.227
13,NCI-H2009,0.93
14,NCI-H2023,0.252
15,NCI-H2228,0.268
16,SK-LU-1,0.613
17,SK-MES-1,0.373
18,SW 1573,0.639
19,UMC-11,0.898
